Assay results taken from US4713371A, “Anthracycline derivatives and their use as cytostatics” (Hoechst Aktiengesellschaft, priority 1983, dated 1987).
In brackets after ≈: the same amount, converted by molar mass. Like-named read-outs stand apart in the source and are kept apart here.

What was measured:
[1] = system: L1210 mouse leukemia cells; experiment: Proliferation assay (14C-thymidine incorporation) on L1210 leukemia cells; format: cell-based; conditions: read-out: Proliferation test IC50
Method: (§1) The cytostatic activity of the compounds described in this text was determined on L1210 mouse leukemia cells. Specifically, the following test systems were used:
In this method, the extent to which the cells can incorporate radioactive DNA precursors (for example ^14 C-labeled thymidine) in vitro is determined after incubation of the cells with various concentrations of the test substance. Untreated L1210 cells are subjected to the same test conditions and serve as the control. The method is briefly described below:
L1210 cells in the exponential phase of growth (5×10^3 /ml in RPMI 1640) are incubated in a microtiter plate with various concentrations of the test substance for 72 hours (37° C., 5% CO2, 95% relative humidity). The controls comprise cells which are merely incubated with fresh medium. All determinations are carried out in quadruplicate. After 65 hours, 50 μl of ^14 C-thymidine (1.5 μCi/ml) are added in order to radiolabel the DNA in the cells. After incubation for 7 hours, the cells are filtered off with suction, the DNA is precipitated with 5% strength trichloroacetic acid and is then washed consecutively with water and methanol.
After drying at 50° C. and addition of 5 ml of scintillation liquid, the radioactivity incorporated in the DNA is measured.
The results are reported as the ratio of the scintillation count after incubation with the test substance as a percentage of the untreated control. The dose-activity curve is derived from the figures thus measured, and the IC50, i.e. the concentration which decreases the incorporation of radioactive thymidine by 50% compared with the control under the test conditions, is determined graphically. The IC50 figures for the compounds described in this text are summarized and compared with adriamycin (ADM) in Table 1.

[2] = system: L1210 leukemia cells; experiment: Formation of colonies of L1210 leukemia cells in soft agar; format: cell-based; conditions: Mus musculus
Method: as §1
(b) Formation of colonies of L1210 leukemia cells in soft agar
This method is used to detect an effect of the test substance on the growth characteristics of the cells over several generations (with the cell cycle period being 10-12 hours, about 14 consecutive generations are observed in the 7-day test period).
In this test, substances having cytostatic effects bring about a reduction in the number of colonies found compared with an untreated control. Specifically, the test is carried out as follows:
500 leukemia cells per plate are incubated with various concentrations of the test substance at 37° C. for 1 hour. The cells are then washed twice with McCoy 5a medium and, after addition of 0.3% agar, are finally poured into Petri dishes. Controls are merely incubated with fresh medium. In some cases, in place of incubation for 1 hour, various concentrations of the test substance are mixed into the upper agar layer in order thus to achieve continuous exposure of the cells throughout the incubation time. After the agar has solidified, the plates are incubated in an incubator at 37° C. for 7 days (5% CO2, 95% relative humidity). Then the number of resulting colonies having a diameter of 60μ is counted. The results are reported as the number of colonies in the treated agar plates as a percentage of the untreated control. The IC50 is determined from the dose-activity curve thus obtained and serves as a measure of the action of the substance. The results for the compounds described in this text are summarized and compared with adriamycin in Table 1.

[3] = 72 hours incubation, L1210 cells, 14C-thymidine incorporation
[4] = 168 h, 7 days incubation (continuous exposure), soft agar, L1210, read-out: Colony formation test IC50, 7 days incubation
[5] = 1 hour incubation, then washed, soft agar 7 days, L1210, read-out: Colony formation test IC50, 1 hour incubation
[6] = L1210, 168 h, read-out: Colony formation test IC50, 7 days incubation
[7] = L1210, read-out: Colony formation test IC50, 1 hour incubation

| Compound | IC50 [1, 3] | IC50 [2, 4] | IC50 [2, 5] | IC50 ([1]; L1210, 72 h) | IC50 [2, 6] | IC50 [2, 7] |
| --- | --- | --- | --- | --- | --- | --- |
| COc1cccc2c1C(=O)c1c(O)c3c(c(O)c1C2=O)C[C@@](O)(C(=O)CO)C[C@@H]3O[C@H]1C[C@H](N)[C@H](O)[C@H](C)O1 [ADM, adriamycin, reference compound] | 6 ng/mL (≈ 11 nM) | 22 ng/mL (≈ 40.5 nM) | 44 ng/mL (≈ 81 nM) |  |  |  |
| CCC1(O)CC(OC2CC(N(C)C)C(OC3CCC(OC4CCC(O)C(C)O4)C(C)O3)C(C)O2)c2c(O)c3c(c(O)c2C1OC1CC(N(C)C)C(OC2CCC(OC4CCC(O)C(C)O4)C(C)O2)C(C)O1)C(=O)c1cccc(O)c1C3=O (stereo not shown) [Cytorhodin A] | 1.1 ng/mL (≈ 0.95 nM) | 3 ng/mL (≈ 2.59 nM) | 1.3 ng/mL (≈ 1.12 nM) |  |  |  |
| CCC1(O)CC(OC2CC(N(C)C)C(OC3CC(O)C(OC4CCC(=O)C(C)O4)C(C)O3)C(C)O2)c2c(O)c3c(c(O)c2C1OC1CC(N(C)C)C(OC2CCC(OC4CCC(O)C(C)O4)C(C)O2)C(C)O1)C(=O)c1cccc(O)c1C3=O (stereo not shown) [Cytorhodin B] | 2.8 ng/mL (≈ 2.39 nM) | 3.4 ng/mL (≈ 2.9 nM) | 1.2 ng/mL (≈ 1.02 nM) |  |  |  |
| CCC1(O)CC(OC2CC(N(C)C)C(OC3CC4OC5CC(=O)C(C)OC5OC4C(C)O3)C(C)O2)c2c(O)c3c(c(O)c2C1OC1CC(N(C)C)C(OC2CC4OC5CC(=O)C(C)OC5OC4C(C)O2)C(C)O1)C(=O)c1cccc(O)c1C3=O (stereo not shown) [Cytorhodin C] |  |  |  | 0.55 ng/mL (≈ 0.466 nM) | 0.15 ng/mL (≈ 0.127 nM) | 3.4 ng/mL (≈ 2.88 nM) |
| CCC1(O)CC(OC2CC(N(C)C)C(OC3CC4OC5CC(=O)C(C)OC5OC4C(C)O3)C(C)O2)c2c(O)c3c(c(O)c2C1OC1CC(N(C)C)C(OC2CCC(OC4C=CC(=O)C(C)O4)C(C)O2)C(C)O1)C(=O)c1cccc(O)c1C3=O (stereo not shown) [Cytorhodin D] |  |  |  | 0.28 ng/mL (≈ 0.24 nM) | 3.7 ng/mL (≈ 3.18 nM) | 2.8 ng/mL (≈ 2.4 nM) |
| CCC1(O)CCc2c(O)c3c(c(O)c2C1OC1CC(N(C)C)C(OC2CCC(OC4CCC(O)C(C)O4)C(C)O2)C(C)O1)C(=O)c1cccc(O)c1C3=O (stereo not shown) [Cytorhodin E] | 25 ng/mL (≈ 33.1 nM) | 1.4 ng/mL (≈ 1.85 nM) | 28 ng/mL (≈ 37 nM) |  |  |  |
| CCC1(O)CC(OC2CC(N(C)C)C(OC3CCC(OC4C=CC(=O)C(C)O4)C(C)O3)C(C)O2)c2c(O)c3c(c(O)c2C1OC1CC(N(C)C)C(OC2CCC(OC4C=CC(=O)C(C)O4)C(C)O2)C(C)O1)C(=O)c1cccc(O)c1C3=O (stereo not shown) [Cytorhodin F] | 2.4 ng/mL (≈ 2.09 nM) | 28 ng/mL (≈ 24.4 nM) | 42 ng/mL (≈ 36.5 nM) |  |  |  |
| CCC1(O)CC(OC2CCC(OC3CCC(OC4CCC(O)C(C)O4)C(C)O3)C(C)O2)c2c(O)c3c(c(O)c2C1C(=O)OC)C(=O)c1cccc(O)c1C3=O (stereo not shown) [Cytorhodin J] | 4400 ng/mL (≈ 5710 nM) |  |  |  |  |  |
| CCC1(O)CCc2c(O)c3c(c(O)c2C1OC1CC(N(C)C)C(OC2CC(O)C(OC4CCC(O)C(C)O4)C(C)O2)C(C)O1)C(=O)c1cccc(O)c1C3=O (stereo not shown) [Cytorhodin K] | 3.7 ng/mL (≈ 4.79 nM) | 3 ng/mL (≈ 3.89 nM) | 31 ng/mL (≈ 40.2 nM) |  |  |  |
| CCC1(O)CCc2c(O)c3c(c(O)c2C1OC1CC(N(C)C)C(OC2CCC(O)C(C)O2)C(C)O1)C(=O)c1cccc(O)c1C3=O (stereo not shown) [Cytorhodin L] | 300 ng/mL (≈ 467 nM) | 210 ng/mL (≈ 327 nM) | 1750 ng/mL (≈ 2730 nM) |  |  |  |
| CCC1(O)CCc2c(O)c3c(c(O)c2C1OC1CC(N(C)C)C(OC2CC(O)C(O)C(C)O2)C(C)O1)C(=O)c1cccc(O)c1C3=O (stereo not shown) [Cytorhodin M] | 280 ng/mL (≈ 426 nM) | 160 ng/mL (≈ 243 nM) | 390 ng/mL (≈ 593 nM) |  |  |  |
| CCC1(O)CC(OC2CC(N(C)C)C(OC3CC(O)C(OC4CCC(=O)C(C)O4)C(C)O3)C(C)O2)c2c(O)c3c(c(O)c2C1OC1CC(N(C)C)C(OC2CCC(OC4C=CC(=O)C(C)O4)C(C)O2)C(C)O1)C(=O)c1cccc(O)c1C3=O (stereo not shown) [Cytorhodin P] | 2.6 ng/mL (≈ 2.23 nM) | 0.32 ng/mL (≈ 0.274 nM) | 2.8 ng/mL (≈ 2.4 nM) |  |  |  |
| CCC1(O)CC(OC2CC(N(C)C)C(OC3CCC(OC4C=CC(=O)C(C)O4)C(C)O3)C(C)O2)c2c(O)c3c(c(O)c2C1OC1CC(N(C)C)C(OC2CCC(OC4CCC(O)C(C)O4)C(C)O2)C(C)O1)C(=O)c1cccc(O)c1C3=O (stereo not shown) [Cytorhodin V] | 2.9 ng/mL (≈ 2.51 nM) | 0.27 ng/mL (≈ 0.234 nM) | 2 ng/mL (≈ 1.73 nM) |  |  |  |
